Measurements: PubChem BioAssay (NCI)
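Test compounds were applied to cells in 96-well plates for 48 hours at 5 doses. TGI denotes the concentration required for complete inhibition of growth.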

Columns and labels:
Assay in all cases: NCI anticancer screen, dose series, 48 h
786-0 renal = test system: 786-0 renal
A498 renal = test system: A498 renal
A549 NSCLC = test system: A549 NSCLC
ACHN renal = test system: ACHN renal
CAKI-1 renal = test system: CAKI-1 renal
CCRF-CEM leukemia = test system: CCRF-CEM leukemia
COLO 205 colon = test system: COLO 205 colon
DLD-1 colon = test system: DLD-1 colon
DMS 273 small cell lung = test system: DMS 273 small cell lung
EKVX NSCLC = test system: EKVX NSCLC
HCC-2998 colon = test system: HCC-2998 colon
HCT-116 colon = test system: HCT-116 colon
HCT-15 colon = test system: HCT-15 colon
HL-60(TB) leukemia = test system: HL-60(TB) leukemia
HOP-92 NSCLC = test system: HOP-92 NSCLC
HT29 colon = test system: HT29 colon
IGROV1 ovarian = test system: IGROV1 ovarian
K-562 leukemia = test system: K-562 leukemia
KM12 colon = test system: KM12 colon
KM20L2 colon = test system: KM20L2 colon
LOX IMVI melanoma = test system: LOX IMVI melanoma
LXFL 529 NSCLC = test system: LXFL 529 NSCLC
M14 melanoma = test system: M14 melanoma
M19-MEL melanoma = test system: M19-MEL melanoma
MALME-3M melanoma = test system: MALME-3M melanoma
MOLT-4 leukemia = test system: MOLT-4 leukemia
NCI-H226 lung = test system: NCI-H226 lung
NCI-H460 lung = test system: NCI-H460 lung
OVCAR-3 ovarian = test system: OVCAR-3 ovarian
OVCAR-4 ovarian = test system: OVCAR-4 ovarian
OVCAR-5 ovarian = test system: OVCAR-5 ovarian
OVCAR-8 ovarian = test system: OVCAR-8 ovarian
RPMI-8226 leukemia = test system: RPMI-8226 leukemia
RXF 393 renal = test system: RXF 393 renal
SF-268 CNS = test system: SF-268 CNS
SF-295 CNS = test system: SF-295 CNS
SF-539 CNS = test system: SF-539 CNS
SK-MEL-2 melanoma = test system: SK-MEL-2 melanoma
SK-MEL-5 melanoma = test system: SK-MEL-5 melanoma
SN12C renal = test system: SN12C renal
SNB-19 CNS = test system: SNB-19 CNS
SNB-78 CNS = test system: SNB-78 CNS
SW-620 colon = test system: SW-620 colon
U251 CNS = test system: U251 CNS
UACC-257 melanoma = test system: UACC-257 melanoma
UACC-62 melanoma = test system: UACC-62 melanoma
UO-31 renal = test system: UO-31 renal
XF 498 CNS = test system: XF 498 CNS
HOP-62 NSCLC = test system: HOP-62 NSCLC
SK-OV-3 ovarian = test system: SK-OV-3 ovarian

Measured: TGI

CCOC1=NC(=O)CC(c2ccccc2)S1 (stereo not drawn)
not listed: HOP-62 NSCLC | SK-OV-3 ovarian
> 100 µM: all other assays above

CCOC(=O)C(Cc1ccc2ccccc2c1)(Cc1ccc2ccccc2c1)C(C)=O
8.51 µM: HCC-2998 colon
8.61 µM: MOLT-4 leukemia
6.58 µM: RPMI-8226 leukemia
not listed: A498 renal | CAKI-1 renal | EKVX NSCLC | HCT-116 colon | HL-60(TB) leukemia | HT29 colon | KM12 colon | NCI-H226 lung | OVCAR-3 ovarian | OVCAR-5 ovarian | OVCAR-8 ovarian | RXF 393 renal | SF-268 CNS | SF-295 CNS | SF-539 CNS | SK-MEL-2 melanoma | SK-MEL-5 melanoma | SNB-19 CNS | UACC-257 melanoma | UO-31 renal
> 10 µM: all other assays above
